Data reported in patent US6599859B1, “Mulch/herbicide composition” (Dow AgroSciences LLC, priority 2001, dated 2003).

System: weeds
Test: Weed control by mulch, dithiopyr and mulch/dithiopyr compositions applied to the ground
Assay type: in vivo
Details: dithiopyr alone, no mulch, application rate 560 grams per hectare
Excerpt: In the following examples, dithiopyr is first dissolved in a warm solvent such as dipropylene glycol at 12-18 percent, by weight. This solution was then sprayed onto a clay carrier.
The results provided by the composition of this invention were compared with the results obtained using the herbicide and the mulch individually.

Q: How did the “% Weed Control” value turn out when CSC(=O)c1c(C(F)F)nc(C(F)(F)F)c(C(=O)SC)c1CC(C)C [Dithiopyr, 2-difluoromethyl-4-(2-methylpropyl)-6-trifluoromethyl-3,5-pyridinedicarbothioic acid, S,S-dimethyl ester] was run?
A: 30%
